Earlier results on one substance are cited in patent US20100160306A1, “Acylated Piperidine Derivatives as Melanocortin-4 Receptor Agonists” (priority 2005, published 2010).

The conditions of this data set: injected intramuscularly or subcutaneously, males with psychogenic erectile dysfunction.

Consider “Ac-Nle-c[Asp-His-DPhe-Arg-Trp-Lys]-NH2 [MT-II]”, for which the response rate is reported as 75%.
